Key:
[1] = tested on: MM1.S human multiple myeloma cells; experiment: Cell viability by MTT assay; assay type: cell-based
Protocol: NM-3 was dissolved in Mg^2+ and Ca^2+ free phosphate buffered saline (PBS) by adding appropriate volume of 10 N NaOH (final pH<7.0). DEX was dissolved in absolute ethanol and diluted with PBS. Final concentration of ethanol in the culture medium was 0.5% or less. DOX was dissolved in PBS.
(§1) The human multiple myeloma cell line MM1.S was maintained in RPMI1640 medium supplemented with 10% fetal bovine serum, 100 units/ml penicillin, and 100 μg/ml streptomycin at 37° C. in an atmosphere of 5% CO2 in air. Cells (3×10^4 cells/well) were seeded in 96 well-plates and incubated with increasing concentrations of DEX or DOX in the presence or absence of NM-3. NM-3 was added at concentrations of 0, 50, 100 and 200 μg/ml 2 hours before the addition of DOX or DEX. After 24 hours of DOX or DEX exposure, 10 μl of MTT reagent (Roche Molecular Biochemicals, final concentration 0.5 mg/ml) was added to each well and allowed to incubate for 4 hours. After the incubation, 100 μl of solubilization solution (10% sodium dodecyl sulfate in 0.01M HCl) was added to each well and allowed to incubate overnight. Optical density at 565 nm was determined using a spectrophotometer (Molecular Devices Corp.).

[2] = tested on: MKN28; experiment: Cell growth (WST-1) in the presence of NM-3; assay type: cell-based; conditions: Homo sapiens, MKN-28, 72 h; 3 days culture; value somewhat low due to the influence of DMSO
[3] = tested on: U266 cells; experiment: Cell viability by MTT assay; assay type: cell-based, human
Protocol: as §1
(§2) The effects of NM-3 in combination with dexamethasone on the viability of RPM18662 and U266 human multiple meyeloma cells were investigated. Experimental conditions were as described in Example 11, with the exception that cells were seeded at 6×10^3 cells/well and the cells were incubated with the appropriate concentrations of NM-3 and DEX for either 48 or 72 hours prior to addition of the MTT reagent.

[4] = tested on: RPMI8662 cells; experiment: Cell viability by MTT assay; assay type: cell-based, human
Protocol: as §1, §2

[5] = tested on: Lewis Lung Carcinoma (LLC); experiment: NM-3 and ionizing radiation, tumor growth; assay type: in vivo, C57BL/6 nude mice
Protocol: (§3) The effects of NM-3 and IR on tumor growth were assessed in Lewis Lung Carcinoma (LLC), Seg-1, and SQ-20B tumors implanted in C57BL/6 nude mice.
By day 7, LLC tumors in the control group and the NM-3 group grew to 8.02±1.24 and 6.19±0.44 times original volume, respectively. Animals in these treatment groups were sacrificed on day 7 due to tumor burden. LLC tumors in the IR (20+20 Gy) group initially grew and then regressed to 1.06±0.08 times original volume (day 7). Regression was followed by regrowth to 2.98±0.83 times original volume at day 15 when the experiment was terminated. […] (FIG. 8A)

[6] = tested on: B16-BL6 melanoma cells; experiment: Experimental tumor metastasis (lung colonies); assay type: in vivo, BDF1 mice; conditions: for Inhibition (%): days 1~13; for Number of lung metastases (Mean ± S.D.): days 1~13, counted day 14
Source text: To determine the antitumor effect of NM-3 on metastatic tumor growth, B16-BL6 melanoma cells (2×10^4 cells per mouse) were transplanted into BDF1 mice (female, 5 weeks old) via the tail vein. NM-3 was continuously administered via the oral route for 13 days following transplantation of the tumor cells. On day 14, the lungs were excised and fixed, and the metastatic colony numbers were counted.

[7] = tested on: MM1.S human multiple myeloma cells; experiment: Cell cycle profile (PI staining, sub-G1 cells); assay type: cell-based
Protocol: Apoptosis was determined by staining cells with annexin V-FITC and propidium iodide (PI). Cells were treated with DEX in the presence or absence of NM-3. NM-3 was added 2 hours before the addition of DEX. After 24 hours of DEX exposure, cells were washed twice with cold PBS, resuspended in binding buffer (10 mM HEPES/NaOH (pH 7.4), 140 mM NaCl, 2.5 mM CaCl2), and then stained with annexin V-FITC (Clontech Laboratories) and PI (Boehringer-Manheim). Apoptosis was analyzed by using a flow cytometer (EPICS XL-MCL, Coulter Corp). The cultured cells were also subjected to cell cycle analysis. Briefly, cells were washed twice with PBS and fixed with 70% ethanol. Cells were then washed with 0.5 ml PBS and 1.0 ml phosphate-citric acid buffer (0.2 M Na2HPO4 and 0.1 M citric acid (pH 7.8)), treated with 200 μg/ml RNase for 15 min at 37° C., and stained with 50 μg/ml PI for 30 min at room temperature in the dark. Cells were filtered through 35-μm diameter mesh to remove clumps. Nuclear staining was analyzed by a flow cytometer. Cells with fractional DNA content located on DNA frequency histograms to the left of the G1 peak (sub-G1 cells) were identified as apoptotic cells.

[8] = in vivo; cited from earlier work
[9] = tested on: MDAMB-435 human breast tumor xenografts; experiment: MDAMB-435 orthotopic model, NM-3 with paclitaxel, first study; assay type: in vivo, female NCRNU nude mice; conditions: NM-3 100 mg/kg I.P. daily alone
Source text: In order to determine the effect of the combination of NM-3 with the cytotoxic drug, paclitaxel on human breast tumor xenografts, female NCRNU nude mice were implanted with MDAMB-435 cells into the subaxillary mammary fat pad. […]

[10] = tested on: SQ-20B tumors; experiment: NM-3 and ionizing radiation, tumor growth; assay type: in vivo, C57BL/6 nude mice
Protocol: as §3
In experiments conducted using SQ-20B tumors, control tumors grew to 5.2±0.94 times original volume by day 20. […] Animals in these two groups were subsequently sacrificed because of tumor burden. […] By day 38, IR treated tumors regrew to twice original volume.

[11] = tested on: PC6; experiment: Cell growth (WST-1) in the presence of NM-3; assay type: cell-based; conditions: Homo sapiens, PC-6, 72 h; 3 days culture with NM-3
[12] = NM-3 alone, 50 and 100 μg/ml, 72 hours preincubation
[13] = NM-3 alone, 48 hour preincubation

COc1cc(O)c2c(=O)oc(C(C)C(=O)O)cc2c1 (stereo not shown) [NM-3, 2-(8-hydroxy-6-methoxy-1-oxo-1H-2-benzopyran-3-yl) propionic acid]
Potentiation of DEX-induced cell death ([1]; NM-3 50-200 μg/ml added 2 hours before DEX, 24 hours): potentiated DEX-induced cell death
Cell viability ([1]; NM-3 alone, 50-200 μg/ml): only slightly decreased the cell viability
IC50 [2]: 175 µg/mL
Potentiation of DEX-induced cell death ([3]; 48 or 72 hours): potentiated DEX-induced cell death
Decrease in cell viability [3, 12]: less evident
Cell viability [3, 13]: dose dependent decrease in cell viability
Potentiation of DEX-induced cell death ([4]; 48 or 72 hours): potentiated DEX-induced cell death
Decrease in cell viability [4, 12]: less evident
Cell viability [4, 13]: dose dependent decrease in cell viability
Tumor volume ([5]; NM-3 alone, day 7): 6.19±0.44 times original volume
Mean tumor volume compared with IR alone ([5]; NM-3 combined with IR (20+20 Gy), day 3, 4, 5, 9, 11, 13 and 15): significantly reduced mean tumor volume
Inhibition (%) ([6]; 0.08 mg/kg p.o.): −5.3%
Number of lung metastases (Mean ± S.D.) ([6]; 0.08 mg/kg p.o.): 88.7 ± 16.1
Inhibition (%) ([6]; 0.31 mg/kg p.o.): 24.0%
Number of lung metastases (Mean ± S.D.) ([6]; 0.31 mg/kg p.o.): 64.0 ± 23.8
Inhibition (%) ([6]; 1.25 mg/kg p.o.): 13.8%
Number of lung metastases (Mean ± S.D.) ([6]; 1.25 mg/kg p.o.): 72.6 ± 20.6
Inhibition (%) ([6]; 5.0 mg/kg p.o.): 18.8%
Number of lung metastases (Mean ± S.D.) ([6]; 5.0 mg/kg p.o.): 68.4 ± 16.9
Number of pleural metastatic foci versus control ([6]; 0.08 to 5 mg/kg p.o.): reduction in the number of pleural metastatic foci
Cell cycle profiles ([7]; NM-3 alone, 50-200 μg/ml): only nominal effects
DEX-induced sub-G1 cells (apoptotic cells) ([7]; NM-3 with DEX 1 μM, 24 hours, concentration-dependent): increased DEX-induced sub-G1 cells
Stability [8]: highly stable
% Tumor Growth Inhibition [9]: 15.29%
Final Tumor Wt. (mg) +/− SEM [9]: 180.0 ± 18.13 mg
Mice with Complete Shrinkage ([9]; n 9): 0
Tumor volume ([10]; NM-3 alone, day 20): 4.3±1.03 times original volume
Tumor size ([10]; NM-3 and IR (65 Gy), by day 6): doubled in size
Tumor regrowth ([10]; NM-3 and IR (65 Gy), by day 38, p=0.006 vs IR alone): failed to reach original volume
Tumor volume, % of original volume ([10]; NM-3 and IR (65 Gy), day 23): 77%
IC50 [11]: > 500 µg/mL
